From patent publication US20150135343A1, “GTP Sensors” (The Board of Regents of the University of Texas System, priority 2012, published 2015)
pKd: −log10 of the molar value.

How the values were obtained:
[1] = molecular target: T1, AF/FA GTP sensor (mAmetrine 1.1 and E. coli FeoB-cpYFP fusion) 11A variant 1217, GNSGKST (SEQ ID NO: 9) (Escherichia coli, UniProt P33650, P12G/T17S); assay: GTP binding analysis, fluorescence titration, sensor 1217
T1 construct: modified pET32, His-tag/NiNTA, E. coli BL21(DE3)
Procedure: (§1) Expression and purification: The FA/AF11A protein construct in a modified pET32 vector was used to transform BL21 (DE3) cells. Protein expression was induced with IPTG at a final concentration of 1 mM when the cell OD600 reached 0.6-0.8. Cells were grown for a further 12-14 hrs at 30° C. overnight. Cells were harvested in the morning, suspended in 50 mM TrisHCl, pH 8.3, 2 mM NaCl, 0.1% (v/v) Tween-20, 10 mM imidazole, 1 mM PMSF (lysis buffer), and lysed by sonication. Cell debris was removed by spinning at 17000 rpm for 30 minutes at 4° C. in a Sorvall RC-5C centrifuge equipped with a SS-34 rotor. The lysate, which is bright yellow, was applied to a NiNTA column equilibrated with the same lysis buffer. The loaded NiNTA column was washed with 5 volumes of the lysis buffer followed by 2-volumes of 50 mM TrisHCl, pH8.3, 400 mM NaCl, 50 mM imidazole. Then the protein was eluted in 2 volumes of 50 mM TrisHCl, pH 7.5, 100 mM NaCl, 300 mM imidazole. […] Protein concentration was determined with a BCA assay-kit from Invitrogen using bovine serum albumin for the calibration curve.
(§2) Fluorescent emission spectra of FA/AF11A were obtained at ˜1 μM in binding buffer and 3.0 ml in a quartz cuvette. […] Titrations with GTP, GDP, and ATP were carried out in a BioTeK plate reader on 96-well fluorescence plates from Whatman. […]

[2] = molecular target: T2, AF/FA GTP sensor (mAmetrine 1.1 and E. coli FeoB-cpYFP fusion) 11A variant 12, P12G, GNSGKTT (SEQ ID NO: 7) (Escherichia coli, UniProt P33650, P12G); assay: GTP binding analysis, fluorescence titration, sensor 12
T2 construct: modified pET32, His-tag/NiNTA, E. coli BL21(DE3)
Procedure: as §1, §2

[3] = tested on: FeoB, G-protein domain of FeoB protein from Escherichia coli, SEQ ID NO:3; conditions: cited from earlier work
[4] = molecular target: T3, AF/FA GTP sensor (mAmetrine 1.1 and E. coli FeoB-cpYFP fusion) 11A variant 1214, P12G+S14A, GNAGKTT (SEQ ID NO: 8) (Escherichia coli, UniProt P33650, P12G/S14A); assay: GTP binding analysis, fluorescence titration, sensor 1214
T3 construct: modified pET32, His-tag/NiNTA, E. coli BL21(DE3)
Procedure: as §1, §2

[5] = molecular target: T4, AF/FA GTP sensor (mAmetrine 1.1 and E. coli FeoB-cpYFP fusion) 11A variant Triple, GNAGKST (SEQ ID NO: 10) (Escherichia coli, UniProt P33650, P12G/S14A/T17S); assay: GTP binding analysis, fluorescence titration, sensor Triple
T4 construct: modified pET32, His-tag/NiNTA, E. coli BL21(DE3)
Procedure: as §1, §2

HEK293 cells = assay: In vivo validation: ratiometric imaging of transfected HEK293 cells with or without MPA; format: cell-based; conditions: 20 μM MPA, HEK293 cells with AF-Triple sensor
Procedure: (§3) AF/FA GTP sensors were subcloned into a pGW1 mammalian cell expression vector with a cytomegalovirus (CMV) promoter. HEK293 cells were transfected with the plasmid DNA using the GenJet (SignaGen) transfection reagent according to the manufacturer's instructions. Cells were allowed to grow for ˜24 hrs before being treated with mycophenolic acid (MPA), which inhibits GTP synthesis. Cells were imaged 20 hrs after drug administration. All cell cultures were carried out with DMEM containing 10% FBS and penicillin/streptomycin and grown at 37° C. in an atmosphere with 5% CO2. Passage number of cells was less than 30 for all experiments.
(§4) Imaging: Cells were imaged in a LabTek 8-chamber 1.5 coverslip-bottom culture-cum-imaging wells. Nikon Eclipse inverted epifluorescence microscope with Sedat Quad 89000 (Chroma Tech) filter along with Sutter instruments automated filter wheel controls was used for all imaging purposes. To ensure adequate signal, 2×2 binning was used. […]
(§5) Images were obtained individually without using the Nikon NIS software ratiometric collection mode. All image quantitative analyses were carried out with the public domain ImageJ (http://rsbweb.nih.gov/ij/) in conjunction with MS Excel and Origin 7. […] Then the ratios of the two intensities were calculated along with the relevant statistics.

[6] = tested on: HEK293 cells transfected with AF-Triple GTP sensor; assay: MPA treatment of HEK293 cells expressing AF-Triple sensor, ratiometric imaging; format: cell-based; conditions: 20 μM MPA
Procedure: as §3, §4, §5

[7] = tested on: HEK293 cells transfected with AF-AAA GTP sensor; assay: MPA treatment of HEK293 cells expressing AF-AAA sensor, ratiometric imaging; format: cell-based; conditions: 20 μM MPA, 20 hrs; GTP-insensitive control sensor
Procedure: as §3, §4, §5

[8] = molecular target: T5, 5a5a-GTP sensor (E. coli FeoB-cpYFP fusion), 5a5a-WT, SEQ ID NO:14 (Escherichia coli, UniProt P33650, E42P/INS38[…]); assay: Effective dissociation constant (Keff) determination, 5a5a-WT; format: binding; conditions: FIG. 7 and FIG. 8
T5 construct: made in house
From the text: DNA encoding a cpYFP was inserted into the DNA encoding residues 35-40 of the FeoB G-protein domain (residues 1-260). Six insertion sites—spaced one codon apart—and 4 combinations of linker lengths between the N- and C-termini of the cpYFP and FeoB genes were used to construct 24 different fusion proteins. Nomenclature followed the form “FY1a-1a”, were the number designates the cpYFP insertion site, with “1” corresponding to insertion after FeoB residue 35 and “6” to insertion after residue 40, and where an “a” after the number indicates the presence of a ser-ala-gly or gly-thr linker at, respectively, the N- or C-terminus of the cpYFP.
The fluorescence from the GTP insensitive protein provided a way to normalize the GTP-sensitive fluorescent signal. […] The ratio of the fluorescence at these two excitation wavelengths is therefore internally normalized for changes in sensor expression levels. In addition, using a single FP provides certain advantages over a 2-FP sensor: (1.) A single FP sensor still generates a ratiometric signal because the binding of GTP causes a […] in fluorescence when excited at longer wavelengths (˜500 nm) but a […] in when excited at shorter (˜400 nm) wavelengths. […] (3.) The change in fluorescence ratio varies from 2-6 fold, depending on pH. […]

Nc1nc2c(ncn2[C@@H]2O[C@H](COP(=O)(O)OP(=O)(O)O)[C@@H](O)[C@H]2O)c(=O)[nH]1 [GDP]
pKd [1]: ~3.19 | pKd [2]: 3.42 | rate of GDP release ([3]; 35° C., too fast to measure by stop-flow methods, estimated): > 1000 s⁻¹ | pKd [4]: 3.28 | pKd [5]: ~3.00

Nc1nc2c(ncn2[C@@H]2O[C@H](COP(=O)(O)OP(=O)(O)OP(=O)(O)O)[C@@H](O)[C@H]2O)c(=O)[nH]1 [GTP, guanosine triphosphate]
pKd [1]: 3.56 | pKd [2]: 4.07 | off-rate (GTP) ([3]; 35° C.): 12 s⁻¹ | on-rate for GTP ([3]; 35° C.): 800000 M⁻¹ s⁻¹ | rate of GTP hydrolysis [3]: 0.0015 s⁻¹ | rate of GTP hydrolysis, fold slower than the rate of GTP release ([3]; ratio): about 5000 fold | pKd [4]: 3.75 | pKd [5]: 3.29

COc1c(C)c2c(c(O)c1C/C=C(\C)CCC(=O)O)C(=O)OC2 [MPA, mycophenolic acid]
cpYFP (green) signal of cells vs untreated (HEK293 cells): brighter green hue | effect of MPA treatment on ratiometric signal (distribution of ratio and average value) ([6]; 20 hrs, p-value of 0.005): distinct difference in the distribution of the ratio as well as the average value | GTP-sensitive signal (cpYFP green) after MPA treatment ([6]; signal inversely related to GTP concentration): brighter green hue than those untreated | effect of MPA treatment on ratiometric signal [7]: no effect

Nc1nc2c(ncn2[C@H]2C[C@H](O)[C@@H](COP(=O)(O)OP(=O)(O)OP(=O)(O)O)O2)c(=O)[nH]1 [dGTP]
binding of dGTP relative to GTP [8]: as well as, if not slightly better than GTP itself
